Measurements: patent US20100292231A1, “Indazole Compounds for Treating Inflammatory Disorders, Demyelinating Disorders and Cancers” (priority 2007, published 2010)
Where two headings read alike, the source gives them in different places.

Columns and labels:
Test in all cases: SelectScreen kinase specificity survey
Type in all cases: biochemical
NEK2 = biological target: T1, NEK2 (Homo sapiens, UniProt P51955); settings: estimated, abridged dose response curve, read-out: Kinase inhibitory activity EC50
T1 construct: purchased Invitrogen, Inc. (SelectScreen service)
In short: (§1)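 Dose-response: 5 graded inhibitor additions per kinase, with ATP at 100 micromolar and detection by an optical reporter on a kinase-unique substrate. The sigmoid saturation fit has four parameters (Hill); EC50 is an estimate.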

PRKCI (PKC iota) = biological target: T2, PRKCI (PKC iota) (Homo sapiens, UniProt P41743); settings: estimated, abridged dose response curve, read-out: Kinase inhibitory activity EC50
T2 construct: purchased Invitrogen, Inc. (SelectScreen platform)
In short: as §1

JAK2 JH1 JH2 = biological target: T3, JAK2 JH1 JH2 (Homo sapiens, UniProt O60674); settings: estimated, abridged dose response curve, read-out: Kinase inhibitory activity EC50
T3 construct: JAK2 JH1 JH2; purchased Invitrogen (SelectScreen platform)
In short: as §1

PKN1 (PRK1) = biological target: T4, PKN1 (PRK1) (Homo sapiens, UniProt Q16512); settings: estimated, abridged dose response curve, read-out: Kinase inhibitory activity EC50
T4 construct: purchased Invitrogen, Inc. (SelectScreen platform)
In short: as §1

PRKCB1 (PKC beta I) = biological target: T5, PRKCB1 (PKC beta I) (Homo sapiens, UniProt P05771); settings: estimated, abridged dose response curve, read-out: Kinase inhibitory activity EC50
T5 construct: purchased Invitrogen (SelectScreen platform)
In short: as §1

DYRK1B = biological target: T6, DYRK1B (Homo sapiens, UniProt Q9Y463); settings: estimated, abridged dose response curve, read-out: Kinase inhibitory activity EC50
T6 construct: purchased Invitrogen (SelectScreen platform)
In short: as §1

STK24 (MST3) = biological target: T7, STK24 (MST3) (Homo sapiens, UniProt Q9Y6E0); settings: estimated, abridged dose response curve, read-out: Kinase inhibitory activity EC50
T7 construct: purchased Invitrogen (SelectScreen platform)
In short: as §1

PDGFRA D842V = biological target: T8, PDGFRA D842V (Homo sapiens, UniProt P16234, D842V); settings: estimated, abridged dose response curve, read-out: Kinase inhibitory activity EC50
T8 construct: purchased Invitrogen (SelectScreen platform)
In short: as §1

GRK5 = biological target: T9, GRK5 (Homo sapiens, UniProt P34947)
T9 construct: purchased Invitrogen (SelectScreen platform)
In short: as §1

FGFR3 K650E = biological target: T10, FGFR3 K650E (Homo sapiens, UniProt P22607, K650E); settings: estimated, abridged dose response curve, read-out: Kinase inhibitory activity EC50
T10 construct: purchased Invitrogen (SelectScreen platform)
In short: as §1

RPS6KA5 (MSK1) = biological target: T11, RPS6KA5 (MSK1) (Homo sapiens, UniProt O75582); settings: estimated, abridged dose response curve, read-out: Kinase inhibitory activity EC50
T11 construct: purchased Invitrogen, Inc. (SelectScreen platform)
In short: as §1

EPHB4 = biological target: T12, EPHB4 (Homo sapiens, UniProt P54760); settings: estimated, abridged dose response curve, read-out: Kinase inhibitory activity EC50
T12 construct: purchased Invitrogen (SelectScreen service)
In short: as §1

AMPK A2/B1/G1 = biological target: T13, AMPK A2/B1/G1 (Homo sapiens, UniProt P54619+P54646+Q9Y478); settings: estimated, abridged dose response curve, read-out: Kinase inhibitory activity EC50
T13 construct: purchased Invitrogen, Inc. (SelectScreen platform)
In short: as §1

ABL2 (Arg) = biological target: T14, ABL2 (Arg) (Homo sapiens, UniProt P42684); settings: estimated, abridged dose response curve, read-out: Kinase inhibitory activity EC50
T14 construct: purchased Invitrogen (SelectScreen platform)
In short: as §1

HIPK1 (Myak) = biological target: T15, HIPK1 (Myak) (Homo sapiens, UniProt Q86Z02); settings: estimated, abridged dose response curve, read-out: Kinase inhibitory activity EC50
T15 construct: purchased Invitrogen (SelectScreen platform)
In short: as §1

LYN A = biological target: T16, LYN A (Homo sapiens, UniProt P07948); settings: estimated, abridged dose response curve, read-out: Kinase inhibitory activity EC50
T16 construct: purchased Invitrogen (SelectScreen)
In short: as §1

RPS6KA1 (RSK1) = biological target: T17, RPS6KA1 (RSK1) (Homo sapiens, UniProt Q15418); settings: estimated, abridged dose response curve, read-out: Kinase inhibitory activity EC50
T17 construct: purchased Invitrogen, Inc. (SelectScreen platform)
In short: as §1

PAK3 = biological target: T18, PAK3 (Homo sapiens, UniProt O75914); settings: estimated, abridged dose response curve, read-out: Kinase inhibitory activity EC50
T18 construct: purchased Invitrogen (SelectScreen platform)
In short: as §1

EPHB2 = biological target: T19, EPHB2 (Homo sapiens, UniProt P29323); settings: estimated, abridged dose response curve, read-out: Kinase inhibitory activity EC50
T19 construct: purchased Invitrogen (SelectScreen service)
In short: as §1

ALK = biological target: T20, ALK (Homo sapiens, UniProt Q9UM73); settings: estimated, abridged dose response curve, read-out: Kinase inhibitory activity EC50
T20 construct: purchased Invitrogen (SelectScreen platform)
In short: as §1

IKBKB (IKK beta) = biological target: T21, IKBKB (IKK beta) (Homo sapiens, UniProt O14920); settings: estimated, abridged dose response curve, read-out: Kinase inhibitory activity EC50
T21 construct: purchased Invitrogen, Inc. (SelectScreen service)
In short: as §1

EPHA3 = biological target: T22, EPHA3 (Homo sapiens, UniProt P29320); settings: estimated, abridged dose response curve, read-out: Kinase inhibitory activity EC50
T22 construct: purchased Invitrogen (SelectScreen service)
In short: as §1

ZAP70 = biological target: T23, ZAP70 (Homo sapiens, UniProt P43403); settings: estimated, abridged dose response curve, read-out: Kinase inhibitory activity EC50
T23 construct: purchased Invitrogen (SelectScreen)
In short: as §1

CLK1 = biological target: T24, CLK1 (Homo sapiens, UniProt P49759); settings: estimated, abridged dose response curve, read-out: Kinase inhibitory activity EC50
T24 construct: purchased Invitrogen (SelectScreen platform)
In short: as §1

T2 sequence (P41743 whole entry): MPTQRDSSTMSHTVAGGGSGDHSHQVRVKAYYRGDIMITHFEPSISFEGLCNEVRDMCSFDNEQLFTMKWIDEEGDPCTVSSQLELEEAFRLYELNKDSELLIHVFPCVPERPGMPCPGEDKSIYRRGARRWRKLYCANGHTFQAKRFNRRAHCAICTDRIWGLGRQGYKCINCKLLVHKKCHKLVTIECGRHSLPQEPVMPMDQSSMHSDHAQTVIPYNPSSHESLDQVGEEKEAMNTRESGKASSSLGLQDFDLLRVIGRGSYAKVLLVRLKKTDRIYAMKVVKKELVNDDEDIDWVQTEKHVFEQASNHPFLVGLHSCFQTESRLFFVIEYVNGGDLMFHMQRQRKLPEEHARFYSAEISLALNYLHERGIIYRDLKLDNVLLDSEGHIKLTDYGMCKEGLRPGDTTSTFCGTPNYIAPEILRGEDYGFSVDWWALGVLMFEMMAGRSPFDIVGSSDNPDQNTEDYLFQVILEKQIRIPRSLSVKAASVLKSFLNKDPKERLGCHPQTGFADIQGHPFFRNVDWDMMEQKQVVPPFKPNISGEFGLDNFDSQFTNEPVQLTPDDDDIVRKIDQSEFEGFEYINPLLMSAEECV
T14 sequence (P42684 whole entry): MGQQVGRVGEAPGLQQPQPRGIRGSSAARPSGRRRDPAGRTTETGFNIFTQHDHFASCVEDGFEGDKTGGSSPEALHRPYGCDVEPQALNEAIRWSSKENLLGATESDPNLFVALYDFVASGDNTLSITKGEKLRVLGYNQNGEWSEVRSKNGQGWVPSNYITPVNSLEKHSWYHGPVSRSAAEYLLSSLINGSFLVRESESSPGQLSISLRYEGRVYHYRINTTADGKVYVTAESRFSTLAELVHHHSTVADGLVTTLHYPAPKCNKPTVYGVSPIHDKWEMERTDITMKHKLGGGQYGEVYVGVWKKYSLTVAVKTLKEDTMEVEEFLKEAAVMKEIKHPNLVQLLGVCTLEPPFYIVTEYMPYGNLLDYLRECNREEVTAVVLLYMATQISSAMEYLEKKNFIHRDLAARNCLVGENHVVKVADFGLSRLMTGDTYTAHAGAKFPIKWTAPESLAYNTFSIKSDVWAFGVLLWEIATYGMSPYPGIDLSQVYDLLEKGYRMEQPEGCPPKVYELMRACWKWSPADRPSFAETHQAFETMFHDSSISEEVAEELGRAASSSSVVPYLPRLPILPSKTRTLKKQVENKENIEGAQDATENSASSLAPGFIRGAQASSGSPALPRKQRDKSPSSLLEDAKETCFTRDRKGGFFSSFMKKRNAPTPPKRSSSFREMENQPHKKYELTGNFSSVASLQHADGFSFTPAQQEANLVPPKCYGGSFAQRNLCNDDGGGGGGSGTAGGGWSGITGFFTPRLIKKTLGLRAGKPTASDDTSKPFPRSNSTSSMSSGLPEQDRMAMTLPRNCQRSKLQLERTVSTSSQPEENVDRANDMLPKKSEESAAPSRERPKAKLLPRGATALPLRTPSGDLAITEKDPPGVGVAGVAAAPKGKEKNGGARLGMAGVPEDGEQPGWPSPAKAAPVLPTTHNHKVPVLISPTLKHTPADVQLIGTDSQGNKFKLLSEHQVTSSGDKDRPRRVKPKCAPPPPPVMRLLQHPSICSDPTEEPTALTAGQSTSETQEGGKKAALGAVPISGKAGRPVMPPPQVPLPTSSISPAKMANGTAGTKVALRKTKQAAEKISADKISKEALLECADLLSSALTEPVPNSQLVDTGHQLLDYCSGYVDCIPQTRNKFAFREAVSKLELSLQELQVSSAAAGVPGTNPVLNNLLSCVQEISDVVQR
T13 sequence (P54646 whole entry): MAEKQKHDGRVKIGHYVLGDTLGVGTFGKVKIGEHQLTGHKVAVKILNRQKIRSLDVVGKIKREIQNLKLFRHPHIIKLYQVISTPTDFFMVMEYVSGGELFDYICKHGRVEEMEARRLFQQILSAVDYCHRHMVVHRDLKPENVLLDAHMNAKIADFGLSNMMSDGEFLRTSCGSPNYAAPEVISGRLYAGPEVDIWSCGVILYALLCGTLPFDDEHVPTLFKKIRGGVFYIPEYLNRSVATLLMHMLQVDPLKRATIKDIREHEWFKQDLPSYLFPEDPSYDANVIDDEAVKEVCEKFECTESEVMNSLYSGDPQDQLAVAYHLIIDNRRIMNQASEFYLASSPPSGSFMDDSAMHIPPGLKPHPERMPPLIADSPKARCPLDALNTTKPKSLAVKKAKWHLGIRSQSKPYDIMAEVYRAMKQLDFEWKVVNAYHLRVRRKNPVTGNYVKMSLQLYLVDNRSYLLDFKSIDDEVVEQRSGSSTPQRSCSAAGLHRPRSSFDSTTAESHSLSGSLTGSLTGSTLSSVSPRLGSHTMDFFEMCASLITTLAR
T13 sequence (Q9Y478 whole entry partner): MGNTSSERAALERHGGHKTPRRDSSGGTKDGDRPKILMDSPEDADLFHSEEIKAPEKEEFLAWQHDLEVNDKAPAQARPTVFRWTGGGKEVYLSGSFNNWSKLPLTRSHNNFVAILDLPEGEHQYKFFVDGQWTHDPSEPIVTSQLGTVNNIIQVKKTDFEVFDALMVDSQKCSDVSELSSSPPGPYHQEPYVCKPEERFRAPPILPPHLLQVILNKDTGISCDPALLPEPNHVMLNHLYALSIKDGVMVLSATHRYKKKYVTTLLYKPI
T13 sequence (P54619 whole entry partner): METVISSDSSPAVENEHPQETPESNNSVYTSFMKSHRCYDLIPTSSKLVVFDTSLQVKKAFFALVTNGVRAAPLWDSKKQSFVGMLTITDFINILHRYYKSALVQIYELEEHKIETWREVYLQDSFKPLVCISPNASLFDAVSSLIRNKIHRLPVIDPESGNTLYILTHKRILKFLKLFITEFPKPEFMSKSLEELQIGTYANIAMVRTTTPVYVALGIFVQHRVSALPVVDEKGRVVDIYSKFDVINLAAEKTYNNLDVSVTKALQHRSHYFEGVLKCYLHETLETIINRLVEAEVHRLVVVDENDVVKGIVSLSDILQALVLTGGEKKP
T9 sequence (P34947 whole entry): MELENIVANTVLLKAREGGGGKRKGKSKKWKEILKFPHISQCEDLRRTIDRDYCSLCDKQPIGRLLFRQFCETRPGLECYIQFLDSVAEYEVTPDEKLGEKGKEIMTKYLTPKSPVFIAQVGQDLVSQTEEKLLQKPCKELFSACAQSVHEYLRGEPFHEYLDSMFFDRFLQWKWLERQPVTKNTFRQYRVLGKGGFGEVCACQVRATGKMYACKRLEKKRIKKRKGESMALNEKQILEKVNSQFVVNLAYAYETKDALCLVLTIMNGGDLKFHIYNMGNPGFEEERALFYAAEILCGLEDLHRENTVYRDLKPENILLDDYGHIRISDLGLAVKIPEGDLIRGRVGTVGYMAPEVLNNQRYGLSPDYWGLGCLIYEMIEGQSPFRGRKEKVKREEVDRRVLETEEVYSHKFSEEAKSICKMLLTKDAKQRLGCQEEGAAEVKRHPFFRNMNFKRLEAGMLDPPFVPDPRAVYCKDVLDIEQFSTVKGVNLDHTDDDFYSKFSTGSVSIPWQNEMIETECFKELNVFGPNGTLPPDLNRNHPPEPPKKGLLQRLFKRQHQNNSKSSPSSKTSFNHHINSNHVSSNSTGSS
T22 sequence (P29320 21-983): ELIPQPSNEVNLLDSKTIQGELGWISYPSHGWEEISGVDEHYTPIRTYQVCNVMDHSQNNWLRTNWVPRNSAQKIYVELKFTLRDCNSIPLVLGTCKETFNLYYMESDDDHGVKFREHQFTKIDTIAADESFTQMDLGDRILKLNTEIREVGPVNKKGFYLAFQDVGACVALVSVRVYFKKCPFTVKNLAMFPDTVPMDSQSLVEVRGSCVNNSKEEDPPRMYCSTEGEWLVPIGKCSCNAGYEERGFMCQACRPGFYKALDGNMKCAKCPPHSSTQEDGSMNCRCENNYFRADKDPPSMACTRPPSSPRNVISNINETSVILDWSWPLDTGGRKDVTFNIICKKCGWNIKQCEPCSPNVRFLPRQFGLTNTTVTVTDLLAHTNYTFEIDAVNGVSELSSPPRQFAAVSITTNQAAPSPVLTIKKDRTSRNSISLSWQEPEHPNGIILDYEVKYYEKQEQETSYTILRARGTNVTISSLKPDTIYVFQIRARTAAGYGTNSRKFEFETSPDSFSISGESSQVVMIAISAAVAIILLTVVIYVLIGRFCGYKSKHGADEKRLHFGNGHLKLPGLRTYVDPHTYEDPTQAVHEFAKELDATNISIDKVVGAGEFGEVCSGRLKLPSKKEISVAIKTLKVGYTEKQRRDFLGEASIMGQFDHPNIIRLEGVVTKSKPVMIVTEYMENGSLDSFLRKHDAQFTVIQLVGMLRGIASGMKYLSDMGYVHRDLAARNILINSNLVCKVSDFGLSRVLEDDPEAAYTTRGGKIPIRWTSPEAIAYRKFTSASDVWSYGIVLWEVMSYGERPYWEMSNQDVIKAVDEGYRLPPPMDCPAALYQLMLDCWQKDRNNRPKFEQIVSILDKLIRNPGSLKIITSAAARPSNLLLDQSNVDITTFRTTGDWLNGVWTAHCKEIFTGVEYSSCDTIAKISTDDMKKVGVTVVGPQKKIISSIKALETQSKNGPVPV
T7 sequence (Q9Y6E0 whole entry): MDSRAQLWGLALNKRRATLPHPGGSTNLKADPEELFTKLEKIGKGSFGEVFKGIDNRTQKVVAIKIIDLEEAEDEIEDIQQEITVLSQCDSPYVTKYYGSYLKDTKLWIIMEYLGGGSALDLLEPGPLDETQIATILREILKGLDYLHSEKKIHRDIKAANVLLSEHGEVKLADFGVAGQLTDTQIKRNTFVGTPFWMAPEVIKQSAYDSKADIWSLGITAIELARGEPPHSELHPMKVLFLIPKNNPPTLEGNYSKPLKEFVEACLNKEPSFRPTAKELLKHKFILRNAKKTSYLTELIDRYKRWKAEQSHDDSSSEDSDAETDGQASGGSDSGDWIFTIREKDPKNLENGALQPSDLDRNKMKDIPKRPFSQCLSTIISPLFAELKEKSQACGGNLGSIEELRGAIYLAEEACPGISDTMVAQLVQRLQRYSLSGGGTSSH

| Compound | EC50 (NEK2) | EC50 (PRKCI (PKC iota)) | EC50 (JAK2 JH1 JH2) | EC50 (PKN1 (PRK1)) | EC50 (PRKCB1 (PKC beta I)) | EC50 (DYRK1B) | EC50 (STK24 (MST3)) | EC50 (PDGFRA D842V) | EC50 (FGFR3 K650E) | EC50 (RPS6KA5 (MSK1)) | EC50 (EPHB4) | EC50 (AMPK A2/B1/G1) | EC50 (ABL2 (Arg)) | EC50 (HIPK1 (Myak)) | EC50 (LYN A) | EC50 (RPS6KA1 (RSK1)) | EC50 (PAK3) | EC50 (EPHB2) | EC50 (ALK) | EC50 (IKBKB (IKK beta)) | also measured |
| --- | --- | --- | --- | --- | --- | --- | --- | --- | --- | --- | --- | --- | --- | --- | --- | --- | --- | --- | --- | --- | --- |
| CN(C)CCCNc1ccc2ncn3c4ccc5[nH]ncc5c4c(=O)c1c23 [Compound (IV)] | > 5 µM | > 5 µM | > 5 µM | 1.39 µM | > 5 µM | 0.82 µM | 1.04 µM | 0.37 µM | > 5 µM | > 5 µM | > 5 µM | 1.57 µM | 2.87 µM | 1.21 µM | 0.389 µM | 1.74 µM | > 5 µM | > 5 µM | 4.63 µM | 2.8 µM | EC50 (GRK5; GRK5, estimated, abridged dose response curve, read-out: Kinase inhibitory activity EC50): > 5 µM; EC50 (EPHA3): > 5 µM; EC50 (ZAP70): > 5 µM; EC50 (CLK1): 0.444 µM |
| CCN(CC)CCNc1ccc2ncn3c4ccc(O)cc4c(=O)c1c23 [Symadex, 5-(2-(diethylamino)ethylamino)-8-hydroxy-6H-imidazo[4,5,1-de]acridin-6-one, reference compound] | > 5 µM | > 5 µM | > 5 µM | 4.75 µM | > 5 µM | 0.991 µM | 0.733 µM | 1.06 µM | > 5 µM | > 5 µM | > 5 µM | 1.79 µM | 3.21 µM | > 5 µM | 0.791 µM | 2.07 µM | > 5 µM | > 5 µM | 2.48 µM | > 5 µM | EC50 (GRK5): > 5 µM; EC50 (EPHA3): > 5 µM; EC50 (ZAP70): > 5 µM; EC50 (CLK1): 2.18 µM |
